Reference: patent publication US20250313563A1, “GLYCOGEN SYNTHASE KINASE 3 INHIBITORS AND USES THEREOF” (The Broad Institute, Inc., priority 2022, published 2025)
Where two headings read alike, the source gives them in different places.

Tests used:
[1] = molecular target: GSK3b (GST-full length GSK3b) (Homo sapiens (Human), UniProt P49841); assay: GSK3b TR-FRET kinase assay; format: biochemical
Summary of the method: (§1)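 Full-length GST-tagged human enzyme (1 nM) is exposed to test compound for 30 min before substrates are added. Phosphorylation of a primed biotinylated glycogen synthase peptide proceeds 100 min at room temperature at low ATP (4 μM α; 2 μM β) or high ATP (1 mM). Product is quantified by TR-FRET.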

[2] = molecular target: GSK3α (GST-full length GSK3α) (Homo sapiens (Human), UniProt P49840); assay: GSK3α TR-FRET kinase assay; format: biochemical
Summary of the method: as §1

[3] = 1 nM GSK3b, 2 μM ATP, 30 minute preincubation, Table 16, read-out: GSK3-B TR-FRET BIOCHEMICAL (TR-FRET)
[4] = 1 nM GSK3α, 4 μM ATP, 30 minute preincubation, Table 16, read-out: GSK3-A TR-FRET BIOCHEMICAL (TR-FRET)
[5] = 1 nM GSK3b, 2 μM ATP, 30 minute preincubation, Table 16, read-out: GSK3-B TR-FRET BIOCHEMICAL (TR-FRET), IC50
[6] = read-out: GSK3-B (TR-FRET 1 mM ATP), GMean, IC50, 1 mM ATP, geometric mean
[7] = 1 nM GSK3α, 4 μM ATP, 30 minute preincubation, Table 16, read-out: GSK3-A TR-FRET BIOCHEMICAL (TR-FRET), IC50
[8] = read-out: GSK3-A (TR-FRET 1 mM ATP), GMean, IC50, 1 mM ATP, geometric mean
[9] = 1 nM GSK3b, 2 μM ATP, 30 minute preincubation, read-out: GSK3-B TR-FRET BIOCHEMICAL (TR-FRET), IC50
[10] = 1 nM GSK3α, 4 μM ATP, 30 minute preincubation, read-out: GSK3-A TR-FRET BIOCHEMICAL (TR-FRET), IC50
[11] = 1 nM GSK3b, 2 μM ATP, 30 minute preincubation, geometric mean, read-out: GSK3-B TR-FRET BIOCHEMICAL (TR-FRET), GMean, IC50
[12] = 1 nM GSK3α, 4 μM ATP, 30 minute preincubation, geometric mean, read-out: GSK3-A TR-FRET BIOCHEMICAL (TR-FRET), GMean, IC50

Chain of GSK3α (GST-full length GSK3α) (P49840 whole entry): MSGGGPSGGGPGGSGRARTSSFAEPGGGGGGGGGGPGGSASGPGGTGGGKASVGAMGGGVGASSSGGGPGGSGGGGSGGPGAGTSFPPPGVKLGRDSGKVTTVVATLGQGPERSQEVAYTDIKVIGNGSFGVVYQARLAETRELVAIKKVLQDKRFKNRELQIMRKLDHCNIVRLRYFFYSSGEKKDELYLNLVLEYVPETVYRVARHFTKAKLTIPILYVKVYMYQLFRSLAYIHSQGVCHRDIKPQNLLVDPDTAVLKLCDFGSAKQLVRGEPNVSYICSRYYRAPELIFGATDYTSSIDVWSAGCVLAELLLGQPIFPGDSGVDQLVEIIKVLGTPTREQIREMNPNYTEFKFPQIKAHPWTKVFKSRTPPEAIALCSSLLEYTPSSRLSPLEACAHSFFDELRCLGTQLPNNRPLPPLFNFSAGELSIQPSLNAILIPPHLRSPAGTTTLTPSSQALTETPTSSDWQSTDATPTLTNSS
Chain of GSK3b (GST-full length GSK3b) (P49841 whole entry): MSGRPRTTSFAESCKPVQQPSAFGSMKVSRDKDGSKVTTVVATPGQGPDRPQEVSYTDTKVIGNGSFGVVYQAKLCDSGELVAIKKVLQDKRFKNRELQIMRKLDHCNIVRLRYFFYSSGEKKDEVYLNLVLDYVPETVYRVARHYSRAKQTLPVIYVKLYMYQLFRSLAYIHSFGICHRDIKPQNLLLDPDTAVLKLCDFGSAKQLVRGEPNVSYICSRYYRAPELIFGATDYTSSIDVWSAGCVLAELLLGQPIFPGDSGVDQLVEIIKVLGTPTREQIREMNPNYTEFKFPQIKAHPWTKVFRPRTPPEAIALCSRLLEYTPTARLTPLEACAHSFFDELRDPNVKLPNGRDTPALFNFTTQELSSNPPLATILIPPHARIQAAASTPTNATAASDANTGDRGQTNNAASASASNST

SMILES: CC[C@]1(c2ccccc2)C2=C(CC(C)(C)[C@H](F)C2=O)Nc2n[nH]cc21 [Compound 957403]
- IC50 [1, 3]: 1000 to 5000 nM
- IC50 [2, 4]: 100 to 1000 nM

SMILES: CCC1(c2cccc(C(F)F)c2)C2=C(CC(C)(C)NC2=O)Nc2n[nH]c(C(F)(F)F)c21 (stereo not drawn) [Compound 951948]
- IC50 [1, 5]: ≤ 100 nM
- IC50 [1, 6]: 100 to 1000 nM
- IC50 [2, 7]: ≤ 100 nM
- IC50 [2, 8]: ≤ 100 nM

SMILES: CCC1(c2cccc(-c3ccncc3F)c2)C2=C(CC(C)(C)CC2=O)Nc2n[nH]cc21 (stereo not drawn) [Compound 943518]
- IC50 [1, 3]: ≤ 100 nM
- IC50 [1, 6]: 100 to 1000 nM
- IC50 [2, 4]: ≤ 100 nM
- IC50 [2, 8]: ≤ 100 nM

SMILES: CC1(C)CC(=O)C2=C(C1)Nc1n[nH]cc1C21CCOC1 (stereo not drawn) [Compound 826713]
- IC50 [1, 3]: 100 to 1000 nM
- IC50 [2, 4]: 100 to 1000 nM

SMILES: CC1(C)CC(=O)C2=C(C1)Nc1n[nH]cc1C21CCN(S(=O)(=O)c2cnccc2C(F)(F)F)CC1 [Compound 947463]
- IC50 [1, 3]: 100 to 1000 nM
- IC50 [2, 4]: ≤ 100 nM

SMILES: CCC1(c2cccc(Cc3ncccn3)c2)C2=C(CC(C)(C)NC2=O)Nc2n[nH]cc21 (stereo not drawn) [Compound 950151]
- IC50 [1, 5]: 1000 to 5000 nM
- IC50 [2, 7]: ≤ 100 nM

SMILES: CCn1cc(N2CCC3=C(C2=O)[C@](CC)(c2cccc(C(F)(F)F)c2)c2c[nH]nc2N3)cn1 [Compound 949867]
- IC50 [1, 5]: 100 to 1000 nM
- IC50 [2, 7]: ≤ 100 nM

SMILES: CCC1(c2cccc(Br)c2)C2=C(CC(C)NC2=O)Nc2n[nH]cc21 (stereo not drawn) [Compound 913225]
- IC50 [1, 9]: 1000 to 5000 nM
- IC50 [2, 10]: 100 to 1000 nM

SMILES: CCC1(c2cccc(-c3ccncn3)c2)C2=C(CC(C)(C)CC2=O)Nc2n[nH]cc21 (stereo not drawn) [Compound 806637]
- IC50 [1, 11]: 100 to 1000 nM
- IC50 [2, 12]: ≤ 100 nM

SMILES: CCC1(c2cccc(-c3ccccc3)c2)C2=C(CC(C)(C)CC2=O)Nc2n[nH]cc21 (stereo not drawn) [Compound 789514]
- IC50 [1, 11]: 100 to 1000 nM
- IC50 [2, 12]: 100 to 1000 nM

SMILES: CC[C@]1(c2cccc(C3CC3)c2)C2=C(CC(C)(C)NC2=O)Nc2n[nH]cc21 [Compound 950817]
- IC50 [1, 5]: > 5000 nM
- IC50 [2, 7]: > 5000 nM

SMILES: CCC1(c2cccc(Br)c2)C2=C(CC(C)(C)CC2=O)Nc2n[nH]c(C(F)(F)F)c21 (stereo not drawn) [Compound 801324]
- IC50 [1, 11]: ≤ 100 nM
- IC50 [2, 12]: ≤ 100 nM

SMILES: Cc1cc(C)cc(C(=O)N2CC3(C2)C[C@]2(CO3)C3=C(CC(C)(C)CC3=O)Nc3n[nH]cc32)c1 [Compound 948223]
- IC50 [1, 9]: ≤ 100 nM
- IC50 [1, 6]: 100 to 1000 nM
- IC50 [2, 10]: ≤ 100 nM
- IC50 [2, 8]: 100 to 1000 nM

SMILES: CCC1(c2cccc(N3CCCCC3)c2)C2=C(CC(C)(C)NC2=O)Nc2n[nH]c(C)c21 (stereo not drawn) [Compound 947674]
- IC50 [1, 11]: 100 to 1000 nM
- IC50 [2, 12]: ≤ 100 nM

SMILES: CC[C@@]1(c2ccccc2)C2=C(C[C@](C)(C(F)(F)F)CC2=O)Nc2n[nH]cc21 [Compound 819568]
- IC50 [1, 11]: 100 to 1000 nM
- IC50 [2, 12]: 100 to 1000 nM

SMILES: CC1(C)CC(=O)C2=C(C1)Nc1n[nH]cc1C21CCCN(S(=O)(=O)C2CC2)CC1 (stereo not drawn) [Compound 917137]
- IC50 [1, 3]: ≤ 100 nM
- IC50 [2, 4]: ≤ 100 nM

SMILES: CC[C@@]1(c2ccccc2)C2=C(Nc3n[nH]cc31)[C@H](F)C(C)(C)CC2=O [Compound 957197]
- IC50 [1, 3]: 1000 to 5000 nM
- IC50 ([1]; GSK3-B (TR-FRET 1 mM ATP), GMean, IC50, 1 mM ATP, geometric mean): > 5000 nM
- IC50 [2, 4]: 100 to 1000 nM
- IC50 ([2]; GSK3-A (TR-FRET 1 mM ATP), GMean, IC50, 1 mM ATP, geometric mean): > 5000 nM

SMILES: CC[C@]1(c2cccc(-c3c(C#N)cnn3C)c2)C2=C(CC(C)(C)NC2=O)Nc2n[nH]c(C)c21 [Compound 952410]
- IC50 [1, 5]: ≤ 100 nM
- IC50 [1, 6]: 1000 to 5000 nM
- IC50 [2, 7]: ≤ 100 nM
- IC50 [2, 8]: 100 to 1000 nM

SMILES: CC1(C)CC(=O)C2=C(C1)Nc1n[nH]cc1C21CCN(S(=O)(=O)c2cccc3c2CCCC3)CC1 [Compound 947470]
- IC50 [1, 3]: ≤ 100 nM
- IC50 [2, 4]: ≤ 100 nM

SMILES: CCC1(c2cccc(Cc3ncccc3C(F)(F)F)c2)C2=C(CC(C)(C)CC2=O)Nc2n[nH]cc21 (stereo not drawn) [Compound 947548]
- IC50 [1, 3]: 100 to 1000 nM
- IC50 [2, 4]: 100 to 1000 nM

SMILES: CCC1(c2cccc(N3CCOCC3)c2)C2=C(CC(C)(C)CC2=O)Nc2n[nH]c(C(F)(F)F)c21 (stereo not drawn) [Compound 816886]
- IC50 [1, 11]: 1000 to 5000 nM
- IC50 [2, 12]: 1000 to 5000 nM

SMILES: CCC1(c2cccc(-c3cnn(C)c3)c2)C2=C(CC(C)CC2=O)Nc2n[nH]cc21 (stereo not drawn) [Compound 823720]
- IC50 [1, 11]: 100 to 1000 nM
- IC50 [2, 12]: ≤ 100 nM

SMILES: CC[C@]1(c2cccc(N3CCCC3)c2)C2=C(CC(C)(C)CC2=O)Nc2n[nH]c(C)c21 [Compound 883875]
- IC50 [1, 5]: 1000 to 5000 nM
- IC50 [2, 7]: 100 to 1000 nM

SMILES: CCC1(c2cccc(N3CCCC3=O)c2)C2=C(CC(C)(C)CC2=O)Nc2n[nH]cc21 (stereo not drawn) [Compound 865171]
- IC50 [1, 11]: 100 to 1000 nM
- IC50 [2, 12]: ≤ 100 nM

SMILES: COc1cccc(S(=O)(=O)N2CCCC3(CC2)C2=C(CC(C)(C)CC2=O)Nc2n[nH]cc23)c1 (stereo not drawn) [Compound 917140]
- IC50 [1, 3]: 100 to 1000 nM
- IC50 [2, 4]: ≤ 100 nM

SMILES: CCC1(c2cccc(N(C)C(=O)Cc3ccccc3)c2)C2=C(CC(C)(C)CC2=O)Nc2n[nH]cc21 (stereo not drawn) [Compound 912071]
- IC50 [1, 5]: ≤ 100 nM
- IC50 [2, 7]: ≤ 100 nM

SMILES: CC1(C)CC(=O)C2=C(C1)Nc1n[nH]cc1[C@]21CC[C@H](C(F)(F)F)C1 [Compound 952435]
- IC50 [1, 3]: 100 to 1000 nM
- IC50 [2, 4]: ≤ 100 nM

SMILES: CCC1(c2cccc(N(C)c3cccc(C(F)(F)F)n3)c2)C2=C(CC(C)(C)CC2=O)Nc2n[nH]cc21 (stereo not drawn) [Compound 913122]
- IC50 [1, 5]: 100 to 1000 nM
- IC50 [2, 7]: 100 to 1000 nM

SMILES: CC(C)(C)Cc1[nH]nc2c1C1(COc3ccccc31)C1=C(CC(C)(C)CC1=O)N2 (stereo not drawn) [Compound 117093]
- IC50 [1, 6]: 100 to 1000 nM
- IC50 [2, 8]: 1000 to 5000 nM

SMILES: CC1(C)CC(=O)C2=C(C1)Nc1n[nH]cc1[C@@]21CO[C@H](c2ccccc2)C1 [Compound 946072]
- IC50 [1, 3]: 100 to 1000 nM
- IC50 [2, 4]: ≤ 100 nM

SMILES: CC[C@]1(c2cccc(C(F)(F)F)c2)C2=C(CCN(Cc3ccccc3)C2=O)Nc2n[nH]cc21 [Compound 912006]
- IC50 [1, 9]: > 5000 nM
- IC50 [2, 10]: > 5000 nM

SMILES: CC[C@@]1(c2cccc(C(F)(F)F)c2)C2=C(C[C@H](C)NC2=O)Nc2n[nH]cc21 [Compound 912097]
- IC50 [1, 9]: > 5000 nM
- IC50 [2, 10]: 100 to 1000 nM

SMILES: CCC1(c2cccc(-c3ccnc(C)c3)c2)C2=C(CC3(CCOC3)NC2=O)Nc2n[nH]cc21 (stereo not drawn) [Compound 948148]
- IC50 [1, 11]: > 5000 nM
- IC50 [2, 12]: 1000 to 5000 nM

SMILES: CC1(C)CC(=O)C2=C(C1)Nc1n[nH]cc1[C@]21COC2(CN(C(=O)C(F)(F)F)C2)C1 [Compound 948156]
- IC50 [1, 9]: 100 to 1000 nM
- IC50 [2, 10]: ≤ 100 nM

SMILES: CC[C@]1(c2cccc(-c3ccnc(C)c3)c2)C2=C(CC3(CCOCC3)NC2=O)Nc2n[nH]c(C)c21 [Compound 948513]
- IC50 [1, 11]: 100 to 1000 nM
- IC50 [2, 12]: ≤ 100 nM

SMILES: CCC1(c2cccc(Oc3ncccn3)c2)C2=C(CC(C)(C)CC2=O)Nc2n[nH]cc21 (stereo not drawn) [Compound 947818]
- IC50 [1, 3]: > 5000 nM
- IC50 [2, 4]: 100 to 1000 nM

SMILES: CC[C@]1(c2cccc(C(F)(F)F)c2)C2=C(CCN(C)C2=O)Nc2n[nH]cc21 [Compound 917283]
- IC50 [1, 9]: > 5000 nM
- IC50 [2, 10]: > 5000 nM

SMILES: CC[C@]1(c2ccccc2)C2=C(C[C@H](C(F)(F)F)CC2=O)Nc2n[nH]cc21 [Compound 806609]
- IC50 [1, 11]: > 1670 nM
- IC50 [2, 12]: 100 to 1000 nM

SMILES: CC[C@]1(c2cccc(-c3cnn(C)c3)c2)C2=C(CC(C)(C)NC2=O)Nc2n[nH]c(C)c21 [Compound 945611]
- IC50 [1, 9]: > 5000 nM
- IC50 [2, 10]: > 5000 nM

SMILES: CC[C@]1(c2cccc(S(=O)(=O)C3CC3)c2)C2=C(CC(C)(C)CC2=O)Nc2n[nH]c(C(F)(F)F)c21 [Compound 945715]
- IC50 [1, 3]: ≤ 100 nM
- IC50 [2, 4]: ≤ 100 nM
